Test results reported in ChEMBL document CHEMBL1955804, “Peroxisome proliferator-activated receptors (PPARs) have multiple binding points that accommodate ligands in various conformations: phenylpropanoic acid-type PPAR ligands bind to PPAR in different conformations, depending on the subtype” (J Med Chem, 2012).

Legend:
Type in all cases: functional
[1] = biological target: T1, Peroxisome proliferator-activated receptor delta (Homo sapiens, UniProt Q03181); experiment: Agonist activity at human PPARdelta assessed as transactivation activity
T1 sequence (Q03181 whole entry): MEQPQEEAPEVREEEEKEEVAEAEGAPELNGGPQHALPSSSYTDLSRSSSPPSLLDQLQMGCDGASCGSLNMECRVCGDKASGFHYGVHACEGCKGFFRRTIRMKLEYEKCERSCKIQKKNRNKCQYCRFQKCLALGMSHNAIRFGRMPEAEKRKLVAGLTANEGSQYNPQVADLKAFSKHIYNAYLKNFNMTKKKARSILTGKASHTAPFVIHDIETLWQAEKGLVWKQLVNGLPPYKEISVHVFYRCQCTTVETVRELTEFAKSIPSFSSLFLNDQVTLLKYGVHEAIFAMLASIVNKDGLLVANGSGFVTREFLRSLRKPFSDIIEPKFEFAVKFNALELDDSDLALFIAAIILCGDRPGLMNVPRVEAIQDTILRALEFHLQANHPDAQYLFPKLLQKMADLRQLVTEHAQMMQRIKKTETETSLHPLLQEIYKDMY

[2] = biological target: T2, Peroxisome proliferator-activated receptor gamma (Homo sapiens, UniProt P37231); experiment: Agonist activity at N-terminal His-tagged human PPARgamma expressed in Escherichia coli BL21 assessed as transactivation activity
T2 sequence (P37231 whole entry): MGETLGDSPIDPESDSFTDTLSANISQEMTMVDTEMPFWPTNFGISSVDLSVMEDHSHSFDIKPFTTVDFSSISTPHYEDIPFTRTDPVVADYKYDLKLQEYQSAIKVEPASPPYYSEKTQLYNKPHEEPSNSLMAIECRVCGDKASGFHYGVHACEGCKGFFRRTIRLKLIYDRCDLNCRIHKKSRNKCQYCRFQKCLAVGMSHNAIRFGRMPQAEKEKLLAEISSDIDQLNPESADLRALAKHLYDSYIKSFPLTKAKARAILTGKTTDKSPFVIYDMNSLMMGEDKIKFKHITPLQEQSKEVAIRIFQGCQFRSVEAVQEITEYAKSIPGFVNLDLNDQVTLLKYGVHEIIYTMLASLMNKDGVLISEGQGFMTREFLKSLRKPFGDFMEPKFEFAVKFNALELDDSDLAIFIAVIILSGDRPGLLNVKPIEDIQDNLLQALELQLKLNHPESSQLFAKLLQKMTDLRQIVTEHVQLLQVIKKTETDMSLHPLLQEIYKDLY

[3] = biological target: T3, Peroxisome proliferator-activated receptor alpha (Homo sapiens, UniProt Q07869); experiment: Agonist activity at human PPARalpha assessed as transactivation activity
T3 sequence (Q07869 whole entry): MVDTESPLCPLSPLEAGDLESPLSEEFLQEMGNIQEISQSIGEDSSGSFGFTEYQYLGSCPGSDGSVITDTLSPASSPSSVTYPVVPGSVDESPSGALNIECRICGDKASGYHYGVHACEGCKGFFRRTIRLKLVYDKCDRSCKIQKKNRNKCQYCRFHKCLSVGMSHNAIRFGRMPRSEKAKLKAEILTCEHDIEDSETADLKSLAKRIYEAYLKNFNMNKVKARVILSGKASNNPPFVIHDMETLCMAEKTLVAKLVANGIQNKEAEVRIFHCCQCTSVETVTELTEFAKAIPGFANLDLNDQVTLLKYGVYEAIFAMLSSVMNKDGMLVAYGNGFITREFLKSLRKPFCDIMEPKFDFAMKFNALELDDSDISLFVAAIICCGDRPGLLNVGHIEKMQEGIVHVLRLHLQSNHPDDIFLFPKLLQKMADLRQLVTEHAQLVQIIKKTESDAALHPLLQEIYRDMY

SMILES: CC[C@@H](Cc1ccc(OC)c(CNC(=O)c2ccc3ccc4cccc5ccc2c3c45)c1)C(=O)O
- EC50 [1]: 43 nM
- EC50 [2]: Not Active
- EC50 [3]: 12 nM
